Columns and labels:
[1] = target: T1, thromboxane synthetase (Rattus norvegicus, UniProt P49430); test: inhibition of thromboxane (TX) formation in rat platelets, TXB2 determined by radio-immunoassay (RIA); format: cell-based, Okamoto-Aoki spontaneously hypertensive rats (SHR); settings: 10^-4 M; SHR washed platelets; 10 minutes at 37° C.
T1 construct: The platelets were isolated by centrifuging the PRP for 10 minutes at 1060×g; endogenous in cells; host or cells: washed platelets from arterial blood of Okamoto-Aoki spontaneously hypertensive rats (Taconic Farms)
T1 sequence (P49430 1-533): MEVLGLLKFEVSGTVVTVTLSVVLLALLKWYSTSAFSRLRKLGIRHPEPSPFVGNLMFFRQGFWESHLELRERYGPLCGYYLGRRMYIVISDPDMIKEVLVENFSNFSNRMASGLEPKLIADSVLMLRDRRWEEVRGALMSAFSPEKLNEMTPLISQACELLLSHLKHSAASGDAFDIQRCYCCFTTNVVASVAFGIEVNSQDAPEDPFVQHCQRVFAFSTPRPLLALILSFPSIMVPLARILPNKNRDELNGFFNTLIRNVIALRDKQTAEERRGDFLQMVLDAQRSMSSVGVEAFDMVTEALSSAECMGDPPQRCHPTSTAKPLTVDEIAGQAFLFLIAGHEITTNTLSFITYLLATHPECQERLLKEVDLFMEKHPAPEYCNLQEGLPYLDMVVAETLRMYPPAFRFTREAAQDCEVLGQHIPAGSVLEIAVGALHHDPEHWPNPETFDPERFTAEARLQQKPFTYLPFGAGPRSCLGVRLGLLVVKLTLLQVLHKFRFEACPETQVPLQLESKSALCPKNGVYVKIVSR
Method: Under urethan anesthesia, […]. of arterial blood was collected in one ml. of 3.2% sodium citrate in a polystyrene tube from Okamoto-Aoki spontaneously hypertensive rats (SHR) (Taconic Farms, Germantown, NY) between 19 and 24 weeks in age. The blood was diluted with 3 ml. cold saline and centrifuged at room temperature for 15 minutes at 460×g. The platelet rich plasma (PRP) was separated. The platelets were isolated by centrifuging the PRP for 10 minutes at 1060×g and were washed in 4 ml. cold oxygenated Krebs phosphate buffer, pH 7.4. The chilled platelets recovered from centrifuging at 800×g for 10 minutes were resuspended in oxygenated Krebs phosphate buffer and diluted to contain 4.5-6.0×10^4 platelts/μl.
The inhibition of thromboxane (TX) formation was studied by determing the concentration of thromboxane B2 (TXB2), the stable hydrolysis product of TXA2. Assay samples, prepared on ice, contained 200 μl. platelet suspension, 50 μl. saline, and 50 μl. vehicle or drug under study (OKY-1581, UK-37248-01, 1-benzylimidazole, or indomethacin). The samples were incubated for 10 minutes at 37° C. in a metabolic shaker. The reaction was terminated by immersing the tubes in an ice bath and adding 50 μl. of 0.5M citric acid. The samples were centrifuged for 10 minutes in a refrigerated centrifuge and the supernatants thus obtained were decanted and stored at -20° C. The TXB2 content for each sample was determined by a direct radio-immunoassay (RIA) utilizing a TXB2 specific RIA kit purchased from New England Nuclear, Boston, MA and expressed as pg TXB2 formed minute^-1 sample^-1, from which the percent inhibition of TXB2 formation was calculated. The results of this test on representative compounds of this invention appear in Table I

[2] = tested on: spontaneously hypertensive rats of the Okamoto strain; test: hypotensive activity (mean arterial blood pressure) in spontaneously hypertensive rats; format: in vivo; settings: 100 mg/kg or less by gavage, two doses 24 h apart; measured 28 hours after initial dose; mean of 1-3 rats; starting MABP 160±1.5 mm
Method: The novel compounds of the present invention are also active hypotensive agents and were tested for hypotensive activity by the method of P. S. Chan and D. Poorvin, Clinical and Experimental Hypertension, 1 (6), 817-830 (1979). Male, 16 week old, spontaneously hypertensive rats of the Okamoto strain, from Taconic Farms, Germantown, N.Y. having an average mean arterial blood pressure of 160±1.5 mm of mercury are used in the test. One to 3 rats are used per test compound. A rat is dosed by gavage with a test compound, suspended in 2% pre-boiled starch at a concentration of 50 mg/ml, at a dose of 100 mg/kg of body weight or less, with 0.9% sodium chloride loading at a dose 25 ml/kg of body weight. A second identical dose of the test compound, without sodium chloride loading is given 24 hours later. At 28 hours after the initial dose, the mean arterial blood pressure (MABP) is measured by the method of Chan and Poorvin vide supra. The procedure is repeated in a second and third rat when necessary. Based on the data obtained and using the three-stage "sequential probability ratio test" statistical method, the critieria for activity or retest are as follows:
If the blood pressure in the first rat is ≤116 mm mercury the compound is considered active. If the blood pressure is between […], a second rat is used. If the average blood pressure of the first and second rats is ≤122 mm the compound is considered active. If the average blood pressure is between 123 and 137 mm, a third rat is used. If the average blood pressure of the three rats is ≤128 mm the compound is considered active. The results of this test on representative compounds of the present invention appear in Table II below.

| SMILES | inhibition at 100 µM [1] | MABP (mean arterial blood pressure) [2] |
| --- | --- | --- |
| O=C(NCCCn1ccnc1)c1ccc(Br)o1 [Example 6, 5-bromo-N--[3-(1H--imidazol-1-yl)propyl]-2-furanecarboxamide] | 82% | – |
| O=C(CCCc1cccs1)NCCCn1ccnc1 [Example 17, N--[3-(1H--imidazol-1-yl)propyl]-2-thiophenebutyramide] | – | 121 mm Hg |
| O=C(NCCCn1ccnc1)c1cccs1 [Example 7, N--[3-(1H--imidazol-1-yl)propyl]-2-thiophenecarboxamide] | 93% | – |
| O=C(NCCCCn1ccnc1)c1ccc(Cl)s1 [Example 30, 5-chloro-N--[4-(1H--imidazol-1-yl)butyl]thiophene-2-carboxamide] | – | 118 mm Hg |
| O=C(NCCCn1ccnc1)c1ccco1 [Example 1, N-[3-(1H-Imidazol-1-yl)propyl]-2-furanecarboxamide] | 97% | – |
| O=C(NCCCn1ccnc1)c1ccoc1 [Example 5, N-[3-(1H-Imidazol-1-yl)propyl]-3-furanecarboxamide] | 78% | 128 mm Hg |
| O=C(NCCCn1ccnc1)c1sc2ccccc2c1Cl [Example 2, 3-chloro-N--[3-(1H--imidazol-1-yl)propyl]benzo[b]thiophene-2-carboxamide] | 100% | – |
| Cc1ccc2c(Cl)c(C(=O)NCCCn3ccnc3)sc2c1 [Example 4, 3-chloro-N--[3-(1H--imidazol-1-yl)propyl]-6-methyl-benzo[b]thiophene-2-carboxamide] | 96% | – |
| O=C(NCCCn1ccnc1)c1sc2cc(F)ccc2c1Cl [Example 3, 3-chloro-6-fluoro-N--[3-(1H--imidazol-1-yl)propyl]benzo[b]thiophene-2-carboxamide] | 96% | – |
| Cc1ccc(C(=O)NCCCn2ccnc2)s1 [Example 8, N--[3-(1H--imidazol-1-yl)propyl]-5-methyl-2-thiophenecarboxamide] | 96% | – |

The next lines start with results.

| inhibition at 100 µM [1] | SMILES | MABP (mean arterial blood pressure) [2] |
| --- | --- | --- |
| 100% | O=C(C=Cc1cccs1)NCCCn1ccnc1 [Example 15, N--[3-(1H--imidazol-1-yl)propyl]-3-(2-thienyl)-2-propenamide] | – |
| 51% | Cc1cn(CCCNC(=O)c2cccs2)cn1 [Example 25, N--[3-(4-methyl-1H--imidazol-1-yl)propyl]thiophene-2-carboxamide] | – |
| 100% | O=C(NCCCn1ccnc1)c1cc2cc(Cl)ccc2s1 [Example 11, 5-chloro-N--[3-(1H--imidazol-1-yl)propyl]benzo[b]thiophene-2-carboxamide] | – |
| 70% | O=C(NCCn1ccnc1)c1sc2ccccc2c1Cl [Example 20, 3-Chloro-N-[2-(1H-imidazol-1-yl)ethyl]benzo[b]thiophene-2-carboxamide] | 117 mm Hg |
| 95% | O=C(NCCCn1ccnc1)c1ccc(Cl)s1 [Example 19, 5-chloro-N--[3-(1H--imidazol-1-yl)propyl]thiophene-2-carboxamide] | 125 mm Hg |
| 78% | O=C(C=Cc1ccco1)NCCCn1ccnc1 [Example 14, N--[3-(1H--imidazol-1-yl)propyl]-3-(2-furanyl)-2-propenamide] | – |
| 91% | O=C(NCCCCn1ccnc1)c1sc2ccccc2c1Cl [Example 29, 3-chloro-N--[4-(1H--imidazol-1-yl)butyl]benzo[b]thiophene-2-carboxamide] | – |
| 55% | CCc1nccn1CCCNC(=O)c1sc2ccccc2c1Cl [Example 22, 3-chloro-N--[3-(2-ethyl-1H--imidazol-1-yl)propyl]benzo[b]thiophene-2-carboxamide] | – |
| 64% | O=C(NCCCn1ccnc1)c1ccc([N+](=O)[O-])o1 [Example 16] | 114 mm Hg |
| 95% | O=C(NCCCCn1ccnc1)c1cccs1 [Example 31, N--[4-(1H--imidazol-1-yl)butyl]thiophene-2-carboxamide] | 114 mm Hg |
| 87% | O=C(NCCCCn1ccnc1)c1ccco1 [Example 28, N-[4-(1H-Imidazol-1-yl)butyl]-2-furanecarboxamide] | – |
| 97% | O=C(NCCCn1ccnc1)c1cc2ccccc2o1 [Example 10, N--[3-(1H--imidazol-1-yl)propyl]-2-benzofuranecarboxamide] | – |
| 100% | O=C(NCCCn1ccnc1)c1cc(Br)c(Br)s1 [Example 9, 4,5-dibromo-N--[3-(1H--imidazol-1-yl)propyl]-2-thiophenecarboxamide] | – |
| 98% | Cc1cn(CCCNC(=O)c2sc3ccccc3c2Cl)cn1 [Example 24, 3-chloro-N--[3-(4-methyl-1H--imidazol-1-yl)propyl]benzo[b]thiophene-2-carboxamide] | – |
| 73% | O=C(NCCCn1ccnc1)C(=O)c1cccs1 [Example 18, N--[3-(1H--imidazol-1-yl)propyl]-α-oxo-thiophene acetamide] | 125 mm Hg |

From US4489089A, “Substituted N-[ω-(1H-imidazol-1-yl)alkyl]-amides” (American Cyanamid Company, priority 1984, dated 1984)
